Data as given in US12251398B2, “Topical compositions designated to maintain and/or restore the integrity of the mucosa and damaged epidermis” (RICERFARMA S.R.L., priority 2020, dated 2025).

Assays:
[1] = test system: Hyaluronidase from bovine testes I-S Type; assay: Enzymatic degradation of hyaluronic acid by hyaluronidase, Mw followed by HP-SEC-TDA; type: biochemical; settings: in words
Description: The molecular weight distribution of degraded acids will be analyzed by using High Performance Size Exclusion Chromatography coupled with a Triple Detector Array (HP-SEC-TDA).
The following is the list of reagents and materials used: • Hyaluronic acid (Mw 1.348.000 Da), Contipro a.s. (Czech Republic) • Hyaluronic acid (Mw 1.450.000 Da), Lehvoss Italia S.r.l. (Italy) • Glycerophosphocholine • Ascorbyl Palmitate • Citric acid monohydrate, Sigma Aldrich • Deionized H2O obtained with a Culligan apparatus; • Hyaluronidase from bovine testes I-S Type. 400-1000 units/mg. Sigma Aldrich; • NaNO3. Sigma Aldrich; • NaN3. Sigma Aldrich; • Snap-it vial 0.3 ml, 11.6×32 mm. Thermo Scientific; • Snap-it cap 11 mm, Thermo Scientific; • Sodium citrate diidrate, Sigma Aldrich. Samples Prepared and Tested:
10 ml of solution were hydrolyzed.
Buffer Solution: Solution 1 has been added to Solution 2 and stirred at room temperature for 30′. Resulting pH=6.06.
Hyaluronidase: about 10 mg of hyaluronidase were dissolved in about 1 ml of H2O and stirred at room temperature for 3 hours (10 mg/ml).
The solutions were stirred at 38° C. in an oil bath for about 1 h before adding 67 μl of the enzyme solution (HA/Hyaluronidase 15/1 w/w).
Different aliquots of solutions were collected at different timing (1 h; 2 h; 3 h; 4 h; 5 h; 6 h, 24 h) and heated at 100° C. for 5′ using a thermoshaker to denature the enzyme. The solutions were filtrated to remove the precipitated enzyme (LLG-Syringe filter CA pore size 0.20 μm. Ø 13 mm). Before HP-SEC-TDA analyses, the solutions were diluted to 0.5 mg/ml of HA with mobile phase.
Two equivalent HP-SEC-TDA instruments were used: • 1) Viscotek system model TDA305. equipped with Refractive Index, Right and Low Angle Light Scattering and Viscometers detectors, was used under the following conditions: • Columns: 2 columns TSKGMPWXL 13 μm. […]

hyaluronidases = settings: known, in words; cited from earlier work
[2] = as disclosed in WO93/19730; cited from earlier work

CCCCCCCCCCCCCCCC(=O)OC[C@H](O)[C@H]1OC(=O)C(O)=C1O [Ascorbyl Palmitate, Ascorbyl palmitate]
effect on the enzymatic kinetics of HA degradation [1]: significantly effective in slowing down the enzymatic kinetics
effect on the enzymatic kinetics of HA degradation ([1]; listed as ascorbyl palmitate): significantly effective in slowing enzymatic kinetics
inhibitory activity against hyaluronidases (hyaluronidases): significant inhibitory activity

C[N+](C)(C)CCOP(=O)([O-])OC[C@H](O)CO [Glycerophosphocholine]
effect on the enzymatic kinetics of HA degradation [1]: does not contribute in any way to the enzymatic kinetics
systemic toxicity [2]: practically devoid of systemic toxicity
topical tolerability [2]: marked topical tolerability
